The values below come from patent publication US8470829B2 (priority 2004, dated 2013).

Assay [1] concerns the target T1, human androgen receptor (Homo sapiens, UniProt P10275).
T1 construct: expressed in transfected cells
T1 sequence (P10275 1-920): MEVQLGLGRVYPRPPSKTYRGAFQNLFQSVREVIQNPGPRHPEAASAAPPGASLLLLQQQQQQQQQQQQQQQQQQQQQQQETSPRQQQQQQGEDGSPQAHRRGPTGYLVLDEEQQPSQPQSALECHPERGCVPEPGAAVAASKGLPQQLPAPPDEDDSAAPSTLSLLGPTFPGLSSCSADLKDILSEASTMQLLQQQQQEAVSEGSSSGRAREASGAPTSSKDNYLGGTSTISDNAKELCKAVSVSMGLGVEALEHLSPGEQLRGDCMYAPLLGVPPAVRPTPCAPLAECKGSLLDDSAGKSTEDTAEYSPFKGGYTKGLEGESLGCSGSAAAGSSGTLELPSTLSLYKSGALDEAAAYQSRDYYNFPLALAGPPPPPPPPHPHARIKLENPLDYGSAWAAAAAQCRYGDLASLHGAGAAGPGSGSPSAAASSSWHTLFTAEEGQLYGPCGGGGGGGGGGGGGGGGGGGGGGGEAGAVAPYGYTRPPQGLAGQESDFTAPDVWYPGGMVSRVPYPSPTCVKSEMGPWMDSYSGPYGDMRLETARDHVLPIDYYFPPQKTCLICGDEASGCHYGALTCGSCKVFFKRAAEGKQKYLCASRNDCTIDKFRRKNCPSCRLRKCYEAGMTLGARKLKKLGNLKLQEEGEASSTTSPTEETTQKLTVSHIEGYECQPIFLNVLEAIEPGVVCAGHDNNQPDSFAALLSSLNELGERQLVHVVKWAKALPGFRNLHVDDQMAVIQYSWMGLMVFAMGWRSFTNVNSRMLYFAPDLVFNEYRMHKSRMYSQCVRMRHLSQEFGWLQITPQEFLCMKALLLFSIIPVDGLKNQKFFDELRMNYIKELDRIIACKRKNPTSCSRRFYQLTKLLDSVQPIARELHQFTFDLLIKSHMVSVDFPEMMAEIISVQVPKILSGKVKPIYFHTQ
The assay can be described thus: Measurement of agonist effect on androgen receptor (reporter gene assay, 11A11B2 cells). The format is cell-based. As to conditions: compound concentration showing a transcription activity of 5% (0.1 nmol/L DHT = 100%, assay medium alone = 0%), 48 hours. The method, then:
(§1) HeLa cells (purchased from Dai-Nippon Seiyaku K. K.) were cultured overnight in Dulbecco's Modified Eagle Medium containing no phenol red, but containing 3% charcoal-treated fetal bovine serum (hereafter referred to as DCC-FBS) (this medium is hereafter referred to as phenol-red-free DMEM). An MMTV-Luc-Hyg vector (reporter plasmid with mouse mammary tumor virus long terminal repeat, containing an androgen response element and a hygromycin resistance gene: a vector obtained by substituting a chloramphenicol acetyl transferease gene of a GM-CAT vector (A.T.C.C No. 67282) purchased from the A.T.C.C. with the firefly luciferase gene, and inserting a hygromycin resistance gene as a drug resistant gene), and pSG5-hAR-neo (human androgen receptor expression vector: a vector having an androgen receptor gene under the control of the SV40 promoter, and having a neomycin resistance gene inserted as a drug resistance gene) were transfected into the HeLa cells using an FuGENE™ 6 Transfection Reagent (obtained from Roche).
(§2) The clone cells thus obtained (11A11B2 cells) were maintained and propagated using DMEM containing 400 μg/mL neomycin, 200 μg/mL hygromycin and 10% FBS, and were propagated using phenol-red-free DMEM containing 10% DCC-FBS three to four days prior to the performance of an androgen receptor reporter gene assay.
The 11A11B2 cells were inoculated in a white clear-bottomed 96-well microplate (COSTAR) so that the cell concentration was 1.0×10^4/well, and were cultured overnight using phenol-red-free DMEM containing 3% DCC-FBS (hereafter referred to as the assay medium). Samples of the assay medium containing the compounds of the Examples and compounds of the Comparative Examples were added so that the final concentrations of the compounds of the Examples and compounds of the Comparative Examples were 1, 10, 100, 1,000 and 10,000 nmol/L), and the cells were cultured for 48 hours, after which the transcription activity value was measured. The transcription activity was measured using a Bright-Glo™ Luciferase Assay System (Promega).
The transcription activity rates of the compounds of the Examples were calculated from the transcription activity measured by the abovementioned method, with the transcription activity value obtained at 0.1 nmol/L DHT taken as 100%, and the transcription activity value in the case of the assay medium alone taken as 0%. The compound concentration showing a transcription activity of 5% (EC5 value) was calculated from a linear equation for two points on either side of 5%.

For assay [2], the target named is T1, human androgen receptor. Nature of the assay: Investigation of antagonist effect on androgen receptor (reporter gene assay, 11A11B2 cells, with DHT). The format is cell-based. The method, then: as §1, §2
The 11A11B2 cells were inoculated in a white clear-bottomed 96-well microplate (COSTAR) so that the cell concentration was 1.0×10^4/well, and were cultured overnight. The assay medium containing DHT was added so that the final concentration of DHT was 0.1 nmol/L, and samples of the assay medium containing the compounds of the Examples or compounds of the Comparative Examples were added so that the final concentrations of the compounds of the Examples or compounds of the Comparative Examples were 1, 10, 100, 1,000 and 10,000 nmol/L, respectively. After culturing for 48, hours, the transcription activity values were measured. The transcription activity was measured using a Bright-Glo™ Luciferase Assay System (Promega).
The transcription activity rates of the compounds of the Examples were calculated from the transcription activity measured by the abovementioned method, with the transcription activity value obtained at 0.1 nmol/L DHT taken as 100%, and the transcription activity value in the case of the assay, medium alone taken as 0%.

[3] abbreviates: with 0.1 nmol/L DHT, transcription activity rate of Test Example 1 subtracted, 11A11B2 cells, 48 hours, read-out: IC50.

Like-named read-outs stand apart in the source and are kept apart here. A value given as a limit tells only on which side of the number the result lay.

On to `CCCOC(=O)Nc1cc(N2C(=O)N(c3ccc(C#N)c(OC)c3)C(=O)C2(C)C)ccc1Cl` [Example 26, 4-[3-(3-n-propoxycarbonylamino-4-chlorophenyl)-4,4-dimethyl-2,5-dioxoimidazolidin-1-yl]-2-methoxybenzonitrile], for which the EC5 in assay [1] was greater than 10 µM. For the same compound, the IC50 in assay [2] (setting [3]) was 0.2 µM.

In assay [1], `CC1(C)C(=O)N(c2ccc(C#N)c(C(F)(F)F)c2)C(=O)N1c1ccc(Cl)c(NC(=O)OCCCO)c1` [Example 27, {2-chloro-5-[3-(4-cyano-3-trifluoromethylphenyl)-5,5-dimethyl-2,4-dioxoimidazolidin-1-yl]phenyl}-carbamic acid 3-hydroxypropyl ester] showed an EC5 greater than 10 µM. Besides, in assay [2] (setting [3]), the IC50 was determined as 0.4 µM.

Compound `CN(C)CCOC(=O)Nc1cc(N2C(=O)N(c3ccc(C#N)c(C(F)(F)F)c3)C(=O)C2(C)C)ccc1Cl` [Example 28, {2-chloro-5-[3-(4-cyano-3-trifluoromethylphenyl)-5,5-dimethyl-2,4-dioxoimidazolidin-1-yl]phenyl}-carbamic acid 2-dimethylaminoethyl ester] registered an EC5 in assay [1] greater than 10 µM. Moreover, the IC50 in assay [2] (setting [3]) is 0.5 µM.

In assay [1], `CN1CCN(CCOC(=O)Nc2cc(N3C(=O)N(c4ccc(C#N)c(C(F)(F)F)c4)C(=O)C3(C)C)ccc2Cl)CC1` [Example 29, {2-chloro-5-[3-(4-cyano-3-trifluoromethylphenyl)-5,5-dimethyl-2,4-dioxoimidazolidin-1-yl]phenyl}-carbamic acid 2-(4-methylpiperazin-1-yl)ethyl ester] yielded an EC5 greater than 10 µM. The IC50 in assay [2] (setting [3]) turned out to be 0.5 µM.

In turn, `COC(=O)Nc1cc(N2C(=O)N(c3ccc(C#N)c(OC)c3)C(=O)C2(C)C)ccc1F` [Example 30] had an EC5 in assay [1] greater than 10 µM. Also, the IC50 in assay [2] (setting [3]) stood at 0.5 µM.

Take `CN(C)CCOC(=O)Nc1cc(N2C(=O)N(c3ccc(C#N)c(Cl)c3)C(=O)C2(C)C)ccc1Cl` [Example 31, {2-chloro-5-[3-(4-cyano-3-chlorophenyl)-5,5-dimethyl-2,4-dioxoimidazolidin-1-yl]phenyl}-carbamic acid 2-dimethylaminoethyl ester]: in assay [1], the EC5 was greater than 10 µM. In assay [2], the IC50 came out at 0.6 µM.

As to `CN(C)CCCOC(=O)Nc1cc(N2C(=O)N(c3ccc(C#N)c(C(F)(F)F)c3)C(=O)C2(C)C)ccc1Cl` [Example 32, {2-chloro-5-[3-(4-cyano-3-trifluoromethylphenyl)-5,5-dimethyl-2,4-dioxoimidazolidin-1-yl]phenyl}-carbamic acid 3-dimethylaminopropyl ester], the EC5 in assay [1] is greater than 10 µM. Besides, the IC50 in assay [2] turned out to be 0.5 µM.

In turn, `CC1(C)C(=O)N(c2ccc(C#N)c(C(F)(F)F)c2)C(=O)N1c1ccc(Cl)c(NC(=O)OCCCCO)c1` [Example 33, {2-chloro-5-[3-(4-cyano-3-trifluoromethylphenyl)-5,5-dimethyl-2,4-dioxoimidazolidin-1-yl]phenyl}-carbamic acid 4-hydroxybutyl ester] registered an EC5 in assay [1] greater than 10 µM. Moreover, the IC50 in assay [2] was found to be 0.3 µM.

For the compound `CN(C)CCOC(=O)N1CCC(N2C(=S)N(c3ccc(C#N)c(C(F)(F)F)c3)C(=O)C2(C)C)CC1` [Example 36], the EC5 in assay [1] was greater than 10 µM. In assay [2], half-maximal inhibition (IC50) required 0.5 µM.

Compound `CC1(C)C(=O)N(c2ccc(C#N)c(C(F)(F)F)c2)C(=O)N1c1ccc(Cl)c(NC(=O)OCCN)c1` [Example 37, {2-chloro-5-[3-(4-cyano-3-trifluoromethylphenyl)-5,5-dimethyl-2,4-dioxoimidazolidin-1-yl]phenyl}-carbamic acid 2-aminoethyl ester] showed an EC5 in assay [1] greater than 10 µM. The IC50 in assay [2] (setting [3]) was 0.7 µM.

In turn, `CCCNC(=O)N1CCC(N2C(=S)N(c3ccc(C#N)c(C(F)(F)F)c3)C(=O)C2(C)C)CC1` [Example 39, 4-[3-(1-n-propylaminocarbonylpiperidin-4-yl)-4,4-dimethyl-5-oxo-2-thioxoimidazolidin-1-yl]-2-trifluoromethylbenzonitrile] gave an EC5 in assay [1] greater than 10 µM. Moreover, the IC50 in assay [2] (setting [3]) turned out to be 0.9 µM.

With `CCCNC(=O)N1CCC(N2C(=S)N(c3ccc(C#N)c(Cl)c3)C(=O)C2(C)C)CC1` [Example 41, 4-[3-(1-n-propylaminocarbonylpiperidin-4-yl)-4,4-dimethyl-5-oxo-2-thioxoimidazolidin-1-yl]-2-chlorobenzonitrile], in assay [1], the EC5 was greater than 10 µM. The same compound showed an IC50 in assay [2] of 0.5 µM.

Regarding `CC1(C)C(=O)N(c2ccc(C#N)c(C(F)(F)F)c2)C(=S)N1c1ccc(Cl)c(NC(=O)OCCO)c1` [Example 46, {2-chloro-5-[3-(4-cyano-3-trifluoromethylphenyl)-5,5-dimethyl-4-oxo-2-thioxoimidazolidin-1-yl]phenyl}-carbamic acid 2-hydroxyethyl ester], the EC5 in assay [1] was greater than 10 µM. In assay [2], half-maximal inhibition (IC50) required 0.3 µM.

`CC1(C)C(=O)N(c2ccc(C#N)c(Cl)c2)C(=S)N1c1ccc(Cl)c(NC(=O)OCCO)c1` [Example 47, {2-chloro-5-[3-(4-cyano-3-chlorophenyl)-5,5-dimethyl-4-oxo-2-thioxoimidazolidin-1-yl]phenyl}carbamic acid 2-hydroxyethyl ester] showed an EC5 in assay [1] greater than 10 µM. The IC50 in assay [2] is 0.3 µM.

In turn, `COc1cc(N2C(=O)C(C)(C)N(c3ccc(Cl)c(NC(=O)OCCO)c3)C2=S)ccc1C#N` [Example 48, {2-chloro-5-[3-(4-cyano-3-methoxyphenyl)-5,5-dimethyl-4-oxo-2-thioxoimidazolidin-1-yl]phenyl}-carbamic acid 2-hydroxyethyl ester] displayed an EC5 in assay [1] greater than 10 µM. The IC50 in assay [2] (setting [3]) worked out at 0.5 µM.

In assay [1], `CC1(C)C(=O)N(c2ccc(C#N)c(C(F)(F)F)c2)C(=S)N1c1ccc(Cl)c(NC(=O)OCC(O)CO)c1` (stereo not shown) [Example 49, {2-chloro-5-[3-(4-cyano-3-trifluoromethylphenyl)-5,5-dimethyl-4-oxo-2-thioxoimidazolidin-1-yl]phenyl}-carbamic acid 2,3-dihydroxypropyl ester] yielded an EC5 greater than 10 µM. The IC50 in assay [2] was 0.3 µM.

Regarding `CC1(C)C(=O)N(c2ccc(C#N)c(Cl)c2)C(=S)N1c1ccc(Cl)c(NC(=O)OCC(O)CO)c1` (stereo not shown) [Example 50, {2-chloro-5-[3-(4-cyano-3-chlorophenyl)-5,5-dimethyl-4-oxo-2-thioxoimidazolidin-1-yl]phenyl}-carbamic acid 2,3-dihydroxypropyl ester], the EC5 in assay [1] is greater than 10 µM. For the same compound, the midpoint of inhibition in assay [2], the IC50, lay at 0.3 µM.
